Laboratory results from ChEMBL document CHEMBL4420080, “Inhibitors of sox18 protein activity for treating angiogenesis- and/or lymphangiogenesis-related diseases” (2018).
The source made the active and inactive calls. No cut-off for these calls is given here.

Assays:
[1] = test system: 4T1.2; assay: Antitumor activity against mouse 4T1.2 cells implanted in BALB/c mouse assessed as median disease latency time at 25 mg/kg/day for 10 days (Rvb =33 days); format: functional
[2] = Critical micellar concentration of the compound; format: physicochemical
[3] = molecular target: Adenosine receptor A2a (Homo sapiens) (UniProt P29274); assay: Inhibition of human adenosine A2A receptor at 10 uM relative to control
[4] = molecular target: Alpha-2A adrenergic receptor (Homo sapiens) (UniProt P08913); assay: Inhibition of human adrenergic alpha2A receptor at 10 uM relative to control
[5] = molecular target: Beta-2 adrenergic receptor (Homo sapiens) (UniProt P07550); assay: Inhibition of human adrenergic beta2 receptor at 10 uM relative to control
[6] = molecular target: D(2) dopamine receptor (Homo sapiens) (UniProt P14416); assay: Inhibition of human dopamine D2S receptor at 10 uM relative to control
[7] = molecular target: Histamine H1 receptor (Homo sapiens) (UniProt P35367); assay: Inhibition of human histamine H1 receptor at 10 uM relative to control
[8] = molecular target: Muscarinic acetylcholine receptor M3 (Homo sapiens) (UniProt P20309); assay: Inhibition of human muscarinic M3 receptor at 10 uM relative to control
[9] = molecular target: Mu-type opioid receptor (Homo sapiens) (UniProt P35372); assay: Inhibition of human mu opioid receptor at 10 uM relative to control
[10] = molecular target: 5-hydroxytryptamine receptor 2B (Homo sapiens) (UniProt P41595); assay: Inhibition of human 5HT2B receptor at 10 uM relative to control
[11] = molecular target: L-type calcium channel (Rattus norvegicus, UniProt P22002+P27732+Q02485); assay: Inhibition of rat L-type calcium channel at 10 uM relative to control; format: protein assay
[12] = molecular target: T1, GABA-A receptor; anion channel (Rattus norvegicus) (UniProt O09028+P15431+P18506+P18508+P19969+P20236+P23574+P23576+P28471+P28473+P30191+P62813+P63079+P63138+Q91ZM7+Q9ES14); assay: Inhibition of rat GABAA channel flunitrazepam binding site at 10 uM relative to control; format: protein-complex assay
[13] = molecular target: T1, GABA-A receptor; anion channel (Rattus norvegicus); assay: Inhibition of rat GABAA channel muscimol binding site at 10 uM relative to control; format: protein-complex assay
[14] = molecular target: hERG (KCNH2) (Homo sapiens, UniProt Q12809); assay: Inhibition of human ERG at 10 uM relative to control
[15] = molecular target: Acetylcholine receptor subunit alpha (Homo sapiens) (UniProt P02708); assay: Inhibition of human nAChR alpha1 channel at 10 uM relative to control
[16] = organism: Rattus norvegicus; assay: Inhibition of rat rolipram binding site at 10 uM relative to control
[17] = molecular target: Androgen receptor (Homo sapiens) (UniProt P10275); assay: Inhibition of human androgen receptor at 10 uM relative to control
[18] = molecular target: Glucocorticoid receptor (Homo sapiens) (UniProt P04150); assay: Inhibition of human glucocorticoid receptor at 10 uM relative to control
[19] = molecular target: Thyroid Hormone Receptor (Rattus norvegicus) (UniProt P18113+P63059); assay: Inhibition of rat thyroid hormone receptor at 10 uM relative to control; format: protein assay
[20] = molecular target: Sigma non-opioid intracellular receptor 1 (Homo sapiens) (UniProt Q99720); assay: Inhibition of human sigma1 receptor at 10 uM relative to control
[21] = molecular target: Sodium-dependent noradrenaline transporter (Homo sapiens) (UniProt P23975); assay: Inhibition of human NET at 10 uM relative to control
[22] = molecular target: Histone deacetylase 4 (Homo sapiens) (UniProt P56524); assay: Inhibition of human HDAC4 at 10 uM relative to control
[23] = molecular target: Protein deacetylase HDAC6 (Homo sapiens) (UniProt Q9UBN7); assay: Inhibition of human HDAC6 at 10 uM relative to control
[24] = molecular target: NAD-dependent protein deacetylase sirtuin-2 (Homo sapiens) (UniProt Q8IXJ6); assay: Inhibition of human Sirtuin2 at 10 uM relative to control
[25] = molecular target: Endothelial transcription factor GATA-2 (Homo sapiens) (UniProt P23769); assay: Inhibition of GATA2 in HUVEC assessed as reduction of GATA2 transcriptional activity by genome-wide RNA-seq and ChlP-seq analysis; format: cell-based
[26] = molecular target: Protein c-Fos (Homo sapiens) (UniProt P01100); assay: Inhibition of c-FOS in HUVEC assessed as reduction of c-FOS transcriptional activity by genome-wide RNA-seq and ChlP-seq analysis; format: cell-based
[27] = molecular target: Histone-lysine N-methyltransferase EZH2 (Homo sapiens) (UniProt Q15910); assay: Inhibition of EZH2 in HUVEC assessed as reduction of EZH2 transcriptional activity by genome-wide RNA-seq and ChlP-seq analysis; format: cell-based
[28] = molecular target: Myc proto-oncogene protein (Homo sapiens) (UniProt P01106); assay: Inhibition of c-MYC in HUVEC assessed as reduction of c-MYC transcriptional activity by genome-wide RNA-seq and ChlP-seq analysis; format: cell-based
[29] = molecular target: Transcription factor SOX-17 (Homo sapiens) (UniProt Q9H6I2); assay: Inhibition of SOX17 (unknown origin) expressed in African green monkey COS7 cells assessed as reduction in SOX17 transcriptional activity at; format: cell-based
[30] = test system: Danio rerio; assay: Induction of arterial and venous genes dys-regulation in zebrafish larvae harboring fli1 a:eGFP,-6.5kdrl:mCherry assessed as effect on Ilk1 gene expression at 1.5 uM dosed starting from 16 hpf and measured at 24 and 48 hpf by qRT-PCR analysis; format: functional, organism-based
[31] = test system: Danio rerio; assay: Induction of arterial and venous genes dys-regulation in zebrafish larvae harboring fli1 a:eGFP,-6.5kdrl:mCherry assessed as effect on dll4 gene expression at 1.5 uM dosed starting from 16 hpf and measured at 24 and 48 hpf by qRT-PCR analysis; format: functional, organism-based
[32] = Plasma concentration in BALB/c mouse xenografted with mouse 4T1.2 cells at 25 mg/kg/day for 10 days measured at day 7; format: ADME, organism-based
[33] = Plasma concentration in BALB/c mouse xenografted with mouse 4T1.2 cells at 25 mg/kg/day for 10 days measured at day 12; format: ADME, organism-based
[34] = test system: 4T1.2; assay: Antitumor activity against mouse 4T1.2 cells implanted in BALB/c mouse assessed as median disease latency time at 50 mg/kg/day for 10 days (Rvb =40 days); format: functional
[35] = test system: 4T1.2; assay: Antitumor activity against mouse 4T1.2 cells implanted in BALB/c mouse assessed as effect on tumor size at 25 mg/kg/day for 10 days; format: functional, organism-based
[36] = test system: 4T1.2; assay: Antitumor activity against mouse 4T1.2 cells implanted in BALB/c mouse assessed as reduction in mean number of lung metastases at 25 mg/kg/day for 10 days measured at day 28 after tumor inoculation relative to control; format: functional; design: scale not given: the % may be the effect or the level left
[37] = test system: 4T1.2; assay: Antitumor activity against mouse 4T1.2 cells implanted in BALB/c mouse undergoing sham surgery without excising tumor on day 12 assessed as effect on mouse survival at 25 mg/kg/day for 10 days; format: functional, organism-based
[38] = test system: 4T1.2; assay: Inhibition of tumor induced vascular response in mouse 4T1.2 cells implanted BALB/c mouse assessed as reduction in blood vessel coverage at 25 mg/kg/day for 10 days by bright field microscopy; format: functional, organism-based

Sequence of Muscarinic acetylcholine receptor M3 (Homo sapiens) (P20309 whole entry, looked up): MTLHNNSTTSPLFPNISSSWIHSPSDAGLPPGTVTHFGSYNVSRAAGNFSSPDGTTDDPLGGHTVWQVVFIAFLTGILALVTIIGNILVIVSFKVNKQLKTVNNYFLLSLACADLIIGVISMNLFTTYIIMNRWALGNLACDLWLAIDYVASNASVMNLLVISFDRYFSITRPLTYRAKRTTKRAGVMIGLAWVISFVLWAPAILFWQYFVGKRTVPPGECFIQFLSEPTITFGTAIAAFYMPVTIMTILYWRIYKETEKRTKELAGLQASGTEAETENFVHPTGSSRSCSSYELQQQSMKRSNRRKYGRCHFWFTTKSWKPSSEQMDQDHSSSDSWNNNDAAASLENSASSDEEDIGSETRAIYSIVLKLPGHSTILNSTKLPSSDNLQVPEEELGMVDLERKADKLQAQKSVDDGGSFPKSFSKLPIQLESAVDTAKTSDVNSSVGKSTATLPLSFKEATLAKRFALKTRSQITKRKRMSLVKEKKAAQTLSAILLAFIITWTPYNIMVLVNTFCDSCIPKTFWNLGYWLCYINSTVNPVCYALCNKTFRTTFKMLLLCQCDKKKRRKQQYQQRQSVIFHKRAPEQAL
Sequence of NAD-dependent protein deacetylase sirtuin-2 (Homo sapiens) (Q8IXJ6 whole entry): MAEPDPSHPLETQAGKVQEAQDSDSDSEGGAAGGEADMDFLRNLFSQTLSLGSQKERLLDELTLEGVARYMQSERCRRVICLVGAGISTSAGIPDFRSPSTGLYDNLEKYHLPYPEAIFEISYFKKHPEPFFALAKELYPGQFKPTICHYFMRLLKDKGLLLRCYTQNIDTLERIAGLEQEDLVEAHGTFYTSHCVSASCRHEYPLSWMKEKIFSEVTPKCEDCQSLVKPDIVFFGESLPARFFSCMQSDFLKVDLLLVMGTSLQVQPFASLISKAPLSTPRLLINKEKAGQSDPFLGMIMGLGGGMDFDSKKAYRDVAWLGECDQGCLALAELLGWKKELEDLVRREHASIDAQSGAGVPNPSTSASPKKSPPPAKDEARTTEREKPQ
Sequence of Histone deacetylase 4 (Homo sapiens) (P56524 whole entry): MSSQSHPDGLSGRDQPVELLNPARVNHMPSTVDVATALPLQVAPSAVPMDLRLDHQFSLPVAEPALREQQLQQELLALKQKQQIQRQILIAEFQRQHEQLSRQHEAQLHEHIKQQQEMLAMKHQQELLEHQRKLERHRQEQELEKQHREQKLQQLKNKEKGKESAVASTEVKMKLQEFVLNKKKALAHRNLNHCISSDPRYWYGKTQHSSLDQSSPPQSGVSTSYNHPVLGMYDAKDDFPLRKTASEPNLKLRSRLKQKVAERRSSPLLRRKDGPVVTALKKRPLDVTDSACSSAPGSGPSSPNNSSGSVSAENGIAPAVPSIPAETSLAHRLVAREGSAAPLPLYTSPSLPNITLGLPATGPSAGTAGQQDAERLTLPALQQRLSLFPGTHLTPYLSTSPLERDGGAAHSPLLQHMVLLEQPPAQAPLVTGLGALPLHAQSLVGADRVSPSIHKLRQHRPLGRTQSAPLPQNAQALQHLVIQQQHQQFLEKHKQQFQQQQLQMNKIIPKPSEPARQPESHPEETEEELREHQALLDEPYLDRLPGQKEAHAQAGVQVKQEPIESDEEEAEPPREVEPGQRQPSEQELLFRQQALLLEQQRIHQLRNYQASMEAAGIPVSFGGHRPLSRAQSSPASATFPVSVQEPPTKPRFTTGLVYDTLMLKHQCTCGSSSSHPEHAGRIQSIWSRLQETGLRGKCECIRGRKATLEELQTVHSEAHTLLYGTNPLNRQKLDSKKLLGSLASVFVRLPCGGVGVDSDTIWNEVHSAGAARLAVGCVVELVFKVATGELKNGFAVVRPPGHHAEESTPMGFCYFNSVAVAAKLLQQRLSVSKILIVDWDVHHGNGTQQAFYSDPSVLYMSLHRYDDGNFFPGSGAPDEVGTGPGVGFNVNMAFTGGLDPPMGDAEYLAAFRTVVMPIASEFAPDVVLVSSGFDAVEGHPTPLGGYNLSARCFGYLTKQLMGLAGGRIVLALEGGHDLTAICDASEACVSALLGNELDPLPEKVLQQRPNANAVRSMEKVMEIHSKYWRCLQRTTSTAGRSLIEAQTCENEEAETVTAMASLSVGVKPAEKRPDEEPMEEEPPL
Sequence of Adenosine receptor A2a (Homo sapiens) (P29274 whole entry): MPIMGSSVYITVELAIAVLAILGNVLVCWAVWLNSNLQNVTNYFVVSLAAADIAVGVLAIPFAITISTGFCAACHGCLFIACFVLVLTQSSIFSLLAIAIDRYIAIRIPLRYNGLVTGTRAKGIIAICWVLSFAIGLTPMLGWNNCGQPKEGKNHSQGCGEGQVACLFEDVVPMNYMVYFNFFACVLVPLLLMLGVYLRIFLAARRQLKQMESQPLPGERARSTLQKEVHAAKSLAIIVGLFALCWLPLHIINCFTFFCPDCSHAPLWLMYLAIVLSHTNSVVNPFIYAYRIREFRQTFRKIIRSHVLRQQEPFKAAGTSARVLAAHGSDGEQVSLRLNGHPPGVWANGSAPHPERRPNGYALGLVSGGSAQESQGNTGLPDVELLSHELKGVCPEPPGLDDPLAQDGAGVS
Sequence of Endothelial transcription factor GATA-2 (Homo sapiens) (P23769 whole entry): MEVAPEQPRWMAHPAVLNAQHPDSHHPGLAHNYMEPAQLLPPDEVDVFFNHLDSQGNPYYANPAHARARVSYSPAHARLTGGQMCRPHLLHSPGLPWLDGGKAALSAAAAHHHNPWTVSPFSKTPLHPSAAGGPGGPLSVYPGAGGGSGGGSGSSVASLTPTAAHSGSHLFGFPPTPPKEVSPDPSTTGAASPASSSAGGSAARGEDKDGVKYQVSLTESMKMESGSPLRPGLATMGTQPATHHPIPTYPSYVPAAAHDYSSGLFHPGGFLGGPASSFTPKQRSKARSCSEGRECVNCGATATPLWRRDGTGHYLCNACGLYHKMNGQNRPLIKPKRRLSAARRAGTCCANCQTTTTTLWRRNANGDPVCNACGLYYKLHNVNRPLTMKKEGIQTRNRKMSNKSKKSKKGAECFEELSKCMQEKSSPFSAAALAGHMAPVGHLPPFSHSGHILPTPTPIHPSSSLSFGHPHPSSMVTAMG
Sequence of Transcription factor SOX-17 (Homo sapiens) (Q9H6I2 whole entry): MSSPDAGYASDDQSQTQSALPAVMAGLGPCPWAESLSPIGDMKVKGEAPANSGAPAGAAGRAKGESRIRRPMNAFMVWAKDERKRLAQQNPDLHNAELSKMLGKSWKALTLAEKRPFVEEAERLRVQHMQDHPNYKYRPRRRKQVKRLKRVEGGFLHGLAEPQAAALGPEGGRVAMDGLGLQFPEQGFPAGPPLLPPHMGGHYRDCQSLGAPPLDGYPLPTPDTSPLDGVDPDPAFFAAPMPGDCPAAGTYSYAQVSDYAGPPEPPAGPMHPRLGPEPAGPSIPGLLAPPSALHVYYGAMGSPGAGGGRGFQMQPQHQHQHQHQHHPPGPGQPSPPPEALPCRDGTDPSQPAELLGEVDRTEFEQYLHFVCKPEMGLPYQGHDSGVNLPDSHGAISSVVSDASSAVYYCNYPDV
Sequence of Alpha-2A adrenergic receptor (Homo sapiens) (P08913 whole entry): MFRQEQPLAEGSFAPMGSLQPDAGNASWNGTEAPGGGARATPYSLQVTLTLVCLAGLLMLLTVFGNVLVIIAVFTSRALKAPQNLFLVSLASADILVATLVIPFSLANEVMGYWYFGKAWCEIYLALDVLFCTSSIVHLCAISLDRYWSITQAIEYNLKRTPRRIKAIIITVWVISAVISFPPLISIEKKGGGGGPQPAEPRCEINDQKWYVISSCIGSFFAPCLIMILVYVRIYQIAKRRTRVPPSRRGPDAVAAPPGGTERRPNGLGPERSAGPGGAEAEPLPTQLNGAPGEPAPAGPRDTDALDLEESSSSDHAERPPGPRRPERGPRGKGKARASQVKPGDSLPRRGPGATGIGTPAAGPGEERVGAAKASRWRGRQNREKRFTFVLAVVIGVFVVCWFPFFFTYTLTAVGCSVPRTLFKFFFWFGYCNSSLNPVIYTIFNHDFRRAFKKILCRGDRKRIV
Sequence of Sigma non-opioid intracellular receptor 1 (Homo sapiens) (Q99720 whole entry): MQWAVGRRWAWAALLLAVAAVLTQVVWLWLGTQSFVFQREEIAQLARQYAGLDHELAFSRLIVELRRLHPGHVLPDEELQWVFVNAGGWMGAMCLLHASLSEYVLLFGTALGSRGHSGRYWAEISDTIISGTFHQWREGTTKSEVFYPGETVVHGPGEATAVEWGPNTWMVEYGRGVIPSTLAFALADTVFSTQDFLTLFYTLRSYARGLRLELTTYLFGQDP
Sequence of Sodium-dependent noradrenaline transporter (Homo sapiens) (P23975 whole entry): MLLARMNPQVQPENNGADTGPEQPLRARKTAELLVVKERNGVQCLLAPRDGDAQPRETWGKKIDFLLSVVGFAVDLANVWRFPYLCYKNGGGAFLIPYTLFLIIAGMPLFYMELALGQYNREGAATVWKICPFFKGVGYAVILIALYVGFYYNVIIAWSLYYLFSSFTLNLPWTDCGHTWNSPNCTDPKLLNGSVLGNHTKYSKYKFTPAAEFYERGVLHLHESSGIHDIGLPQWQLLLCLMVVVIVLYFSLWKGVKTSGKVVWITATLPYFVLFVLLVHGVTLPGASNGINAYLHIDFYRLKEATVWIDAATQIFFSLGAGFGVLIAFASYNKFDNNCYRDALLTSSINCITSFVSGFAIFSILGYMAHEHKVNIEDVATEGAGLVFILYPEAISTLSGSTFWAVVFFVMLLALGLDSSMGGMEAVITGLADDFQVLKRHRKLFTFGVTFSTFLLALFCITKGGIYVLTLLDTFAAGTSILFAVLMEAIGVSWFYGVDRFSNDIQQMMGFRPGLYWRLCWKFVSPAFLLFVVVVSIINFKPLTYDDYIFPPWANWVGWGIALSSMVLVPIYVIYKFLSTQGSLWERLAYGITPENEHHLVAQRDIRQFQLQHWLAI

In the case of `O=C(O)c1c(O)cccc1CCc1ccc2ccccc2c1`, the Time [1] is reported as 33 days, the CMC [2] is reported as > 1000 µM and the inhibition [3] is reported as 30%. The inhibition [4] was 0%, the inhibition [5] was 2% and the inhibition [6] was 15%. For the same compound, the inhibition [7] was 2%, the inhibition [8] was 8% and the inhibition [9] was 3%. The inhibition [10] was -2%, the inhibition at 10 µM [11] was -8% and the inhibition [12] was -6%. The inhibition [13] was 6%, the inhibition at 10 µM [14] was -14% and the inhibition [15] was -4%. It also gave an inhibition [16] of 1%, an inhibition [17] of 1% and an inhibition [18] of 12%. For the same compound, the inhibition [19] was 36%, the inhibition [20] was -6% and the inhibition [21] was 34%. For the same compound, the inhibition [22] was 5.1%, the inhibition [23] was 1.1% and the inhibition [24] was -5.2%. The inhibition [25] was “inactive”, the inhibition [26] was “inactive” and the inhibition [27] was “inactive”. For the same compound, the inhibition [28] was “inactive”, the inhibition [29] was “inactive” and the Activity [30] was “Active”. The Activity [31] was “Active”, the concentration at 240 h [32] was 38300 ng/mL and the concentration at 240 h [33] was 55200 ng/mL. For the same compound, the Time [34] was 73 days, the Activity [35] was “inactive” and the Activity [36] was 67%. For the same compound, the Activity [37] was “inactive” and the inhibition [38] was “Active”.
